In the first experiment the test system is Aβ secretion from CHO cells transfected with Swedish mutation Amyloid Precursor Protein (CHO-APPsw). Put plainly: Aβ secretion inhibition in CHO-APPsw cells, sandwich ELISA. The class given is cell-based. Particulars: CHO, read-out: Effect on Aβ Secretion (Concentration) (IC50). As for the experimental part:
This is an […] assay designed to show the ability of test compounds to […]. CHO cells transfected with human AβPP bearing the Swedish mutation AβPP(CHO-AβPPsw) were treated with a farnesyl transferase inhibitor (FTI) (e.g., compounds from Table 1). The assay was carried out as follows:
CHO cells transfected with Swedish mutation Amyloid Precursor Protein (CHO-APPsw) were maintained in Dulbecco's Modified Eagle Medium (DMEM) media supplemented with nonessential amino acids (NEAA, Gibco-BRL Company) and 10% (v/v) heat inactivated Fetal Calf Serum (Hyclone Company), penicillin and streptomycin (Gibco-BRL).
The polyclonal antibodies were purified on a protein G-Sepharose column prior to use. Biotinylated monoclonal antibody 4G8 which recognizes amino acids 17-24 of Aβ (Senetek plc, St. Louis, Mo., USA) was used as the detection antibody. Alkaline phosphatase-conjugated strepavidin (Zymed Laboratories, San Francisco, Calif., USA) was used to bind the biotinylated detection antibody followed by Attophos (JBL Scientific, St. Luis Obispo, Calif., USA), the substrate for alkaline phosphatase. Fluorescence was measured using a Cytofluor plate reader (Perseptive Biosystems, Framingham, Mass., USA) set at 450 nm excitation and 560 emission. Synthetic Aβ40 and Aβ42 peptides used for standard curves were purchased from California Peptide (Napa, Calif., USA).
For `O=C1CCCc2c1ccc(O[C@H](Cn1ccnc1)c1ccccc1)c2CCc1ccccc1` [Compound 1, (S) 6-(2-Imidazol-1-yl-1-phenyl-ethoxy)-5-phenethyl-3,4-dihydro-2H-naphthalen-1-one], the IC50 was 0.7 µM.
`O=C1CCCc2c1ccc(O[C@H](Cn1ccnc1)c1ccccc1)c2CCc1ccccn1` [Compound 12, (S) 6-(2-Imidazol-1-yl-1-phenyl-ethoxy)-5-(2-pyridin-2-yl-ethyl)-3,4-dihydro-2H-naphthalen-1-one]: the IC50 was determined as 12 µM.
As to `O=C1CCCc2c1ccc(O[C@H](Cn1ccnc1)c1ccccc1)c2CNc1ccccc1` [Compound 8, (S) 6-(2-Imidazol-1-yl-1-phenyl-ethoxy)-5-phenylaminomethyl-3,4-dihydro-2H-naphthalen-1-one], the IC50 is 7.6 µM.
`O=C1CCCc2c1ccc(OCCc1cncn1Cc1ccccc1)c2CCc1ccccc1` [Compound 15, 6-[2-(3-Benzyl-3H-imidazol-4-yl)-ethoxy]-5-phenethyl-3,4-dihydro-2H -naphthalen-1-one; trifluoro-acetate]: the IC50 came out at 1.5 µM.
Same read-out and setting: as for `O=C1CCCc2c1ccc(OC(Cn1ccnc1)c1ccccc1)c2CCc1ccncc1` (centres unmarked) [Compound 13, 6-(2-Imidazol-1-yl-1-phenyl-ethoxy)-5-(2-pyridin-4-yl-ethyl)-3,4-dihydro-2H-naphthalen-1-one], the figure is 11 µM.
Take `O=C1CCCc2c1ccc(O[C@H](Cn1ccnc1)c1ccccc1)c2CCc1ccc(F)cc1` [Compound 9, (S) 6-(2-Imidazol-1-yl-1-phenyl-ethoxy)-5-[2-(4-fluorophenyl)ethyl]-3,4-dihydro-2H-naphthalen-1-one]: the IC50 was determined as 4.5 µM.
On the same count and under the same terms, as for `O=C1CCCc2cc(O[C@@H](Cn3ccnc3)c3ccccc3)ccc21` [Compound 5, (R) 6-(2-Imidazol-1-yl-1-phenyl-ethoxy)-3,4-dihydro-2H-naphthalen-1-one], the figure is 1.5 µM; as for `O=C1CCCc2c1ccc(O[C@H](Cn1ccnc1)c1ccccc1)c2CS(=O)(=O)c1ccccc1` [Compound 10, (S) 5-Benzenesulfonylmethyl-6-(2-imidazol-1-yl-1-phenyl-ethoxy)-3,4-dihydro-2H-naphthalen-1-one], 25.4 µM; as for `CC(C)OCc1c(OC(Cn2ccnc2)c2ccccc2)ccc2c1CCCC2=O` (centres unmarked) [Compound 7, 6-(2-Imidazol-1-yl-1-phenyl-ethoxy)-5-isopropoxymethyl-3,4-dihydro-2H-naphthalen-1-one], 37.9 µM.

Still in this experiment, the particulars now being: CHO-APPsw cells, serum free media overnight at 37° C., secreted Aβ by sandwich ELISA; read-out: Effect on Aβ Secretion (Concentration) (IC50).
Consider `CC(C)(CNC(=O)CN(Cc1ccc(OCc2ccccc2)cc1)C(=O)[C@H](Cc1cnc[nH]1)NC(=O)OCc1ccccc1)c1ccccc1` [Compound 16, (S) [1-{(4-Benzyloxy-benzyl)-[(2-methyl-2-phenyl-propycarbamoyl)-methyl]-carbamoyl}-2-(3H-imidazol-4-yl)-ethyl]-carbamic acid benzyl ester], for which the IC50 stood at 50 µM.
As to `CN1C(=O)CC(c2cccc(Cl)c2)c2cc(C(Nc3cncn3C)c3ccc(Cl)cc3)ccc21` (centres unmarked) [Compound 18, 1-Methyl-4-(3-chlorophenyl)-6-[(4-chlorophenyl)-(1-methylimidazol-5-yl)aminomethyl]-2,3-dihydroquinolin-2-one], the IC50 was determined as 6 µM.
Same read-out and setting: as for `O=C1CCCc2c1ccc(S[C@H](Cn1ccnc1)c1ccccc1)c2CCc1ccccc1` [Compound 11, (S) 6-(2-Imidazol-1-yl-1-phenyl-ethylsulfanyl)-5-phenethyl-3,4-dihydro-2H-naphthalen-1-one], the figure is 1.5 µM; as for `Cc1ccc(CN(CC(=O)NCC2(c3ccccc3)CCC2)C(=O)[C@H](Cc2c[nH]cn2)NC(=O)OCc2ccccc2)cc1` [Compound 17, (S) [2-(1H-Imidazol-4-yl)-1-((4-methyl-benzyl)-{[(1-phenyl-cyclobutylmethyl)-carbamoyl]-methyl}-carbamoyl)-ethyl]-carbamic acid benzyl ester], 10 µM.
On to `O=C1CCCc2cc(OCCc3c[nH]cn3)ccc21` [Compound 2, 6-[2-(1H-Imidazol-4-yl)-ethoxy]-3,4-dihydro-2H-naphthalen-1-one], for which the IC50 worked out at 7.6 µM.
Turning to `O=C1/C(=C/c2cccs2)CCc2cc(OC(Cn3ccnc3)c3ccccc3)ccc21` (racemic) [Compound 3, E-(+/−)6-(2-Imidazol-1-yl-1-phenyl-ethoxy)-2-thiophen-2-ylmethylene-3,4-dihydro-2H-naphthalen-1-one], the IC50 was 4.5 µM.
As to `O=C(O)CCC(Oc1ccc2c(c1CCc1ccccc1)CCCC2=O)c1ccccc1` (centres unmarked) [Compound 14, 4-(5-Oxo-1-phenethyl-5,6,7,8-tetrahydro-naphthalen-2-yloxy)-4-phenyl-butyric acid], the IC50 turned out to be 13.8 µM.
Same read-out and setting: as for `O=C(CN(Cc1ccc(OCc2ccccc2)cc1)C(=O)[C@H](Cc1c[nH]cn1)NC(=O)OCc1ccccc1)NCCOCc1ccccc1` [Compound 19, (S) [1-{(4-Benzyloxy-benzyl)-[(2-benzyloxy-ethylcarbamoyl)-methyl]-carbamoyl}-2-(1H-imidazol-4-yl)ethyl]-carbamic acid benzyl ester], the figure is 10 µM; as for `O=C1CCC(c2ccccc2)c2cc(OC(Cn3ccnc3)c3ccccc3)ccc21` (racemic) [Compound 6, 6-(2-Imidazol-1-yl-1-phenyl-ethoxy)-4-phenyl-3,4-dihydro-2H-naphthalen-1-one racemic], 3.1 µM.
`O=C1CCCc2cc(OC(Cn3ccnc3)c3ccc(Cl)cc3)ccc21` (racemic) [Compound 4, 6-[1-(4-Chloro-phenyl)-2-imidazol-1-yl-ethoxy]-3,4-dihydro-2H-napththalen-1-one racemic]: the IC50 was determined as 25 µM.

Staying with this experiment, now noted: transfected CHO cells treated with 10 μM compound.
As for `O=C1CCCc2c1ccc(O[C@H](Cn1ccnc1)c1ccccc1)c2CCc1ccccc1` [Compound 1, (S) 6-(2-Imidazol-1-yl-1-phenyl-ethoxy)-5-phenethyl-3,4-dihydro-2H-naphthalen-1-one], the “fold decrease in secreted Aβ” value was 6.5 fold.

Source of the values: patent US20040063770A1, “Method for treating Alzheimer's disease” (Warner-Lambert Company, priority 2000, published 2004).
